Reference: article PMC4303209, “A novel phosphatidylinositol 3-kinase (PI3K) inhibitor directs a potent FOXO-dependent, p53-independent cell cycle arrest phenotype characterized by the differential induction of a subset of FOXO-regulated genes” (Breast Cancer Research : BCR, 2014)

How the values were obtained:
nuclear FOXO3a = test: Immunoblot of nuclear fractions for FOXO3a in MCF-7 or U2OS cells; format: cell-based, human; conditions: nuclear fractions of treated MCF-7 or U2OS cells
Method: (§1) Figure 1 Cellular response to ETP-45658. […] Seventy-two hours post treatment, MTT assays were conducted. (B) Dose- and time-dependent analysis of Ser473 phosphorylation of AKT phosphorylation by 100nM ETP-45658 or PI-103 treatment. MCF-7 or U2OS cells were treated with the indicated concentrations (μM) of ETP-45658 (or PI-103) for four hours, then total protein was extracted and immunoblotted. For nuclear FOXO analysis, nuclear protein fractions were collected four hours post ETP-45658 (or PI-103) treatment. Nuclear FOXO3a levels were measure by immunoblotting. Nuclear fractions were confirmed by probing for lamin A/C. (C) FACS profile of MCF-7 or U2OS following 100 nM ETP-45658 treatment (20,000 events scored, N = 5). (D) Heat map for the top 100 differentially expressed genes based on hierarchical clustering using Euclidean distance metric. Red and green indicate genes that induced or repressed respectively by ETP-45658 or PI-103. Black indicates no change (N = 4). […] Numbers indicate number of genes that are exclusive to that particular category.

[1] = tested on: FOXO3a promoter recruitment in MCF-7 or MDA-MB231 cells; test: Chromatin immunoprecipitation (ChIP) for FOXO3a promoter recruitment; format: cell-based, human; conditions: by six hours post treatment
Method: Chromatin immunoprecipitation (ChIP) assays were performed essentially the same as described in [28]. Briefly, cells were fixed with 1% formaldehyde, and then whole-cell lysates were prepared. Protein lysate was subjected to ChIP with the indicated antibodies, followed by DNA purification (Invitrogen, Waltham, MA, USA). ChIP-enriched DNA was analyzed by PCR with the indicated primer sets (Table S1 in Additional file 3) purchased from NZYTech (Lisbon, Portugal). Visualization of bands was achieved using a BioRad Chemidoc XRS+ (BioRad) and quantified using the Image Lab software (BioRad).
Figure 5 Chromatin immunoprecipitation analysis for FOXO3a promoter recruitment. (A) Chromatin immunoprecipitation (ChIP) assays for FOXO3a following ETP-45658 treatment at three or six hours of MCF-7 or MDA-MB231 cells for […], CDKN1B, BCL2L11or FASLG. IgG indicates no specific antibody used and for simplicity, only inputs from our MCF-7 samples are shown. (B and C) Quantification of our ChIP gels normalised to inputs from each respective cell line. Error bars indicate standard deviation, N = 3.

PC3 = test: Proliferation assay (MTT, 72 hours); format: cell-based; conditions: Homo sapiens, PC-3
Method: (§2) Cells were seeded in 96-well microtitre plates. Compounds (in DMSO) were added to each well (at a final concentration of 10 μM). The medium was removed from the cells and replaced with 0.2 ml of medium containing either compound for 72 hours and then processed for MTT assay (Promega Corp, Madison, WI, USA) N = 6.
as §1

MCF-7 = test: Proliferation assay (MTT, 72 hours); format: cell-based; conditions: Homo sapiens, MCF7
Method: as §2, §1

NCIH460 = test: Proliferation assay (MTT, 72 hours); format: cell-based; conditions: Homo sapiens, NCI-H460
Method: as §2, §1

HCT-116 = test: Proliferation assay (MTT, 72 hours); format: cell-based; conditions: Homo sapiens
Method: as §2, §1

T47D = test: Proliferation assay (MTT, 72 hours); format: cell-based; conditions: Homo sapiens
Method: as §2, §1

MV4.11 = test: Proliferation assay (MTT, 72 hours); format: cell-based; conditions: Homo sapiens
Method: as §2, §1

[2] = design: method as in PMID 17575152; conditions: cited from earlier work
[3] = tested on: PC3, MCF7, MV4.11, T47D, HCT-116 and NCIH46 cells; test: cells; format: cell-based; conditions: Homo sapiens; range over all tested cell lines; MTT 72 hours; read-out: EC50 value for the inhibition of proliferation, inhibitory range
Description: We determined the EC50 value for the inhibition of proliferation in each of the following cell lines, PC3, MCF7, MV4.11, T47D, HCT-116 and NCIH46 cells.

Structure (SMILES) | nuclear FOXO3a level (nuclear FOXO3a) | FOXO3a promoter recruitment (CCNG2, CDKN1B, BCL2L11, FASLG) [1] | GI50 (PC3) [nM] | GI50 (MCF-7) [nM] | GI50 (NCIH460) [nM] | GI50 (HCT-116) [nM] | GI50 (T47D) [nM] | GI50 (MV4.11) [nM] | aqueous solubility [2] | EC50 [3] [nM]
Cn1ncc2c(N3CCOCC3)nc(-c3cccc(O)c3)nc21 [ETP-45658] | significant accumulation | statistically significant FOXO3a promoter recruitment |  |  |  |  |  |  |  | 
Oc1cccc(-c2nc(N3CCOCC3)c3oc4ncccc4c3n2)c1 [PI-103] |  |  | 50 | 500 | 1310 | 1670 | 340 | 50 | limited aqueous solubility | 49 to 1760
